Measured values: patent US6355799B1, “Substituted benzene compounds, process for their preparation, and herbicidal and defoliant compositions containing them” (ISK Americas Incorporated, priority 1997, dated 2002)

Columns and labels:
Format in all cases: in vivo
[1] = tested on: field corn (Zea mays L., var. Dekalb 535, CORN); experiment: Pre-emerge test, crop safety; conditions: pre-emerge, 14 days after application; for phytotoxicity rating CORN (crop damage): scale 0-100; for phytotoxicity rating CORN: rating scale 0-100
Outline: (§1)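 Compounds in acetone were track-sprayed at 15-1000 g ai/ha (187 l/ha) on sandy loam pots: pre-emerge one day after seeding, post-emerge at 2-3 leaf stage with 0.25% v/v non-ionic surfactant. Phytotoxicity was rated 14 days later on a 0 (no damage) to 100 (complete death) scale.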

[2] = tested on: upland rice (Oryza sp., var. Tebonnet, RICE); experiment: Pre-emerge test, crop safety; conditions: pre-emerge, 14 days after application; for phytotoxicity rating RICE (crop damage): scale 0-100; for phytotoxicity rating RICE: rating scale 0-100
Outline: as §1

[3] = tested on: johnsongrass (Sorghum halepense, SORHA); experiment: Pre-emerge test, greenhouse herbicide activity screening; conditions: pre-emerge, 14 days after application
Outline: (§2)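 Herbicidal damage is scored 0 (none) to 100 (complete plant death) two weeks after a simulated field spray. Rates span 15–1000 g ai/ha, delivered in acetone at 187 l/ha. For post-emergence treatments, plants have 2–3 leaves and the spray carries 0.25% v/v non-ionic surfactant.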

[4] = tested on: green foxtail (Setaria viridis, SETVI); experiment: as above; conditions: pre-emerge, 14 days after application
Outline: as §2

[5] = tested on: lambsquarters (Chenopodium album, CHEAL); experiment: as above; conditions: pre-emerge, 14 days after application
Outline: as §2

[6] = tested on: common ragweed (Ambrosia artemisizfolia L., AMBEL); experiment: as above; conditions: pre-emerge, 14 days after application
Outline: as §2

[7] = tested on: ivyleaf morningglory (Ipomoea hederacea, IPOHE); experiment: as above; conditions: pre-emerge, 14 days after application
Outline: as §2

[8] = tested on: barnyardgrass (Echinochloa crus-galli, ECHCG); experiment: as above; conditions: pre-emerge, 14 days after application
Outline: as §2

[9] = tested on: large crabgrass (Digitaria sanguinalis, DIGSA); experiment: as above; conditions: pre-emerge, 14 days after application
Outline: as §2

[10] = tested on: velvetleaf (Abutilon theophrasti, ABUTH); experiment: as above; conditions: pre-emerge, 14 days after application
Outline: as §2

[11] = tested on: sicklepod (Cassia obtusifolia, CASOB); experiment: as above; conditions: pre-emerge, 14 days after application
Outline: as §2

[12] = tested on: field corn (Zea mays L., var. Dekalb 535, CORN); experiment: Post-emerge test, crop safety; conditions: post-emerge, 14 days after application, rating scale 0-100
Outline: as §2

[13] = tested on: upland rice (Oryza sp., var. Tebonnet, RICE); experiment: Post-emerge test, crop safety; conditions: post-emerge, 14 days after application, rating scale 0-100
Outline: as §2

[14] = tested on: redroot pigweed (Amaranthus retroflexus, AMARE); experiment: Pre-emerge test, greenhouse herbicide activity screening; conditions: pre-emerge, 14 days after application
Outline: (§3)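 Rating: 0–100 visual injury, 14 DAA. Application: acetone, 187 l/ha, 15–1000 g ai/ha, flat-fan track sprayer with nozzle 40–45 cm above soil or canopy. Post-emerge runs used 0.25% v/v surfactant on 2–3 leaf plants.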

[15] = tested on: redroot pigweed (Amaranthus retroflexus, AMARE); experiment: Post-emerge test, greenhouse herbicide activity screening; conditions: post-emerge, 14 days after application
Outline: as §3

[16] = tested on: green foxtail (Setaria viridis, SETVI); experiment: as above; conditions: post-emerge, 14 days after application, rating scale 0-100
Outline: as §3

[17] = tested on: lambsquarters (Chenopodium album, CHEAL); experiment: as above; conditions: post-emerge, 14 days after application, rating scale 0-100
Outline: as §3

[18] = tested on: common ragweed (Ambrosia artemisizfolia L., AMBEL); experiment: as above; conditions: post-emerge, 14 days after application, rating scale 0-100
Outline: as §3

[19] = tested on: ivyleaf morningglory (Ipomoea hederacea, IPOHE); experiment: as above; conditions: post-emerge, 14 days after application, rating scale 0-100
Outline: as §3

[20] = tested on: barnyardgrass (Echinochloa crus-galli, ECHCG); experiment: as above; conditions: post-emerge, 14 days after application, rating scale 0-100
Outline: as §3

[21] = tested on: large crabgrass (Digitaria sanguinalis, DIGSA); experiment: as above; conditions: post-emerge, 14 days after application, rating scale 0-100
Outline: as §3

[22] = tested on: velvetleaf (Abutilon theophrasti, ABUTH); experiment: as above; conditions: post-emerge, 14 days after application, rating scale 0-100
Outline: as §3

[23] = tested on: sicklepod (Cassia obtusifolia, CASOB); experiment: as above; conditions: post-emerge, 14 days after application, rating scale 0-100
Outline: as §3

[24] = 250 g ai/ha, rating scale 0-100

Compound: Cn1c(C(F)(F)F)cc(=O)n(-c2c(F)cc(Cl)cc2NC2CC2)c1=O [2-147]
- phytotoxicity rating CORN (crop damage) ([1]; 63 g ai/ha): 100
- phytotoxicity rating CORN (crop damage) ([1]; 250 g ai/ha): 100
- phytotoxicity rating RICE (crop damage) ([2]; 63 g ai/ha): 99
- phytotoxicity rating RICE (crop damage) ([2]; 250 g ai/ha): 100
- phytotoxicity rating SORHA ([3]; 63 g ai/ha, scale 0-100): 90
- phytotoxicity rating SORHA ([3]; 250 g ai/ha, scale 0-100): 100
- phytotoxicity rating SETVI ([4]; 63 g ai/ha, scale 0-100): 100
- phytotoxicity rating SETVI ([4]; 250 g ai/ha, scale 0-100): 100
- phytotoxicity rating CHEAL ([5]; 63 g ai/ha, scale 0-100): 100
- phytotoxicity rating CHEAL ([5]; 250 g ai/ha, scale 0-100): 100
- phytotoxicity rating AMBEL ([6]; 63 g ai/ha, scale 0-100): 80
- phytotoxicity rating AMBEL ([6]; 250 g ai/ha, scale 0-100): 100
- phytotoxicity rating IPOHE ([7]; 63 g ai/ha, scale 0-100): 80
- phytotoxicity rating IPOHE ([7]; 250 g ai/ha, scale 0-100): 100
- phytotoxicity rating ECHCG ([8]; 63 g ai/ha, scale 0-100): 90
- phytotoxicity rating ECHCG ([8]; 250 g ai/ha, scale 0-100): 100
- phytotoxicity rating DIGSA ([9]; 63 g ai/ha, scale 0-100): 90
- phytotoxicity rating DIGSA ([9]; 250 g ai/ha, scale 0-100): 100
- phytotoxicity rating ABUTH ([10]; 63 g ai/ha, scale 0-100): 100
- phytotoxicity rating ABUTH ([10]; 250 g ai/ha, scale 0-100): 100
- phytotoxicity rating CASOB ([11]; 63 g ai/ha, scale 0-100): 40
- phytotoxicity rating CASOB ([11]; 250 g ai/ha, scale 0-100): 100
- CORN phytotoxicity rating (crop damage) ([12]; 63 g ai/ha): 15
- CORN phytotoxicity rating (crop damage) ([12]; 250 g ai/ha): 90
- RICE phytotoxicity rating (crop damage) ([13]; 63 g ai/ha): 50
- RICE phytotoxicity rating (crop damage) ([13]; 250 g ai/ha): 75
- phytotoxicity rating AMARE ([14]; 63 g ai/ha, scale 0-100): 100
- phytotoxicity rating AMARE ([14]; 250 g ai/ha, scale 0-100): 100
- AMARE phytotoxicity rating ([15]; 63 g ai/ha, rating scale 0-100): 100
- AMARE phytotoxicity rating [15, 24]: 100
- SETVI phytotoxicity rating ([16]; 63 g ai/ha): 20
- SETVI phytotoxicity rating ([16]; 250 g ai/ha): 40
- CHEAL phytotoxicity rating ([17]; 63 g ai/ha): 100
- CHEAL phytotoxicity rating ([17]; 250 g ai/ha): 100
- AMBEL phytotoxicity rating ([18]; 63 g ai/ha): 95
- AMBEL phytotoxicity rating ([18]; 250 g ai/ha): 100
- IPOHE phytotoxicity rating ([19]; 63 g ai/ha): 100
- IPOHE phytotoxicity rating ([19]; 250 g ai/ha): 100
- ECHCG phytotoxicity rating ([20]; 63 g ai/ha): 10
- ECHCG phytotoxicity rating ([20]; 250 g ai/ha): 50
- DIGSA phytotoxicity rating ([21]; 63 g ai/ha): 20
- DIGSA phytotoxicity rating ([21]; 250 g ai/ha): 50
- ABUTH phytotoxicity rating ([22]; 63 g ai/ha): 100
- ABUTH phytotoxicity rating ([22]; 250 g ai/ha): 100
- CASOB phytotoxicity rating ([23]; 63 g ai/ha): 80
- CASOB phytotoxicity rating ([23]; 250 g ai/ha): 95

Compound: CCOC(=O)C(Cl)Cc1c(OCC)c(Cl)cc(F)c1-n1c(=O)cc(C(F)(F)F)n(C)c1=O (centres unmarked) [14-63]
- phytotoxicity rating CORN ([1]; 63 g ai/ha): 0
- phytotoxicity rating CORN ([1]; 250 g ai/ha): 0
- phytotoxicity rating RICE ([2]; 63 g ai/ha): 0
- phytotoxicity rating RICE ([2]; 250 g ai/ha): 0
- phytotoxicity rating SORHA ([3]; 63 g ai/ha, rating scale 0-100): 0
- phytotoxicity rating SORHA [3, 24]: 20
- phytotoxicity rating SETVI ([4]; 63 g ai/ha, rating scale 0-100): 30
- phytotoxicity rating SETVI [4, 24]: 99
- phytotoxicity rating CHEAL ([5]; 63 g ai/ha, rating scale 0-100): 80
- phytotoxicity rating CHEAL [5, 24]: 99
- phytotoxicity rating AMBEL ([6]; 63 g ai/ha, rating scale 0-100): 0
- phytotoxicity rating AMBEL [6, 24]: 60
- phytotoxicity rating IPOHE ([7]; 63 g ai/ha, rating scale 0-100): 0
- phytotoxicity rating IPOHE [7, 24]: 0
- phytotoxicity rating ECHCG ([8]; 63 g ai/ha, rating scale 0-100): 0
- phytotoxicity rating ECHCG [8, 24]: 50
- phytotoxicity rating DIGSA ([9]; 63 g ai/ha, rating scale 0-100): 70
- phytotoxicity rating DIGSA [9, 24]: 100
- phytotoxicity rating ABUTH ([10]; 63 g ai/ha, rating scale 0-100): 70
- phytotoxicity rating ABUTH [10, 24]: 100
- phytotoxicity rating CASOB ([11]; 63 g ai/ha, rating scale 0-100): 0
- phytotoxicity rating CASOB [11, 24]: 50
- Post-emerge Herbicidal Activity CORN (crop damage rating) ([12]; 63 g ai/ha): 35
- Post-emerge Herbicidal Activity CORN (crop damage rating) ([12]; 250 g ai/ha): 80
- Post-emerge Herbicidal Activity RICE (crop damage rating) ([13]; 63 g ai/ha): 5
- Post-emerge Herbicidal Activity RICE (crop damage rating) ([13]; 250 g ai/ha): 15
- phytotoxicity rating AMARE ([14]; 63 g ai/ha, rating scale 0-100): 99
- phytotoxicity rating AMARE [14, 24]: 100
- Post-emerge Herbicidal Activity AMARE (phytotoxicity rating) ([15]; 63 g ai/ha, rating scale 0-100 (0 no damage, 100 complete death)): 95
- Post-emerge Herbicidal Activity AMARE (phytotoxicity rating) [15, 24]: 100
- Post-emerge Herbicidal Activity SETVI (phytotoxicity rating) ([16]; 63 g ai/ha): 50
- Post-emerge Herbicidal Activity SETVI (phytotoxicity rating) ([16]; 250 g ai/ha): 70
- Post-emerge Herbicidal Activity CHEAL (phytotoxicity rating) ([17]; 63 g ai/ha): 80
- Post-emerge Herbicidal Activity CHEAL (phytotoxicity rating) ([17]; 250 g ai/ha): 100
- Post-emerge Herbicidal Activity AMBEL (phytotoxicity rating) ([18]; 63 g ai/ha): 20
- Post-emerge Herbicidal Activity AMBEL (phytotoxicity rating) ([18]; 250 g ai/ha): 50
- Post-emerge Herbicidal Activity IPOHE (phytotoxicity rating) ([19]; 63 g ai/ha): 70
- Post-emerge Herbicidal Activity IPOHE (phytotoxicity rating) ([19]; 250 g ai/ha): 70
- Post-emerge Herbicidal Activity ECHCG (phytotoxicity rating) ([20]; 63 g ai/ha): 100
- Post-emerge Herbicidal Activity ECHCG (phytotoxicity rating) ([20]; 250 g ai/ha): 99
- Post-emerge Herbicidal Activity DIGSA (phytotoxicity rating) ([21]; 63 g ai/ha): 40
- Post-emerge Herbicidal Activity DIGSA (phytotoxicity rating) ([21]; 250 g ai/ha): 90
- Post-emerge Herbicidal Activity ABUTH (phytotoxicity rating) ([22]; 63 g ai/ha): 90
- Post-emerge Herbicidal Activity ABUTH (phytotoxicity rating) ([22]; 250 g ai/ha): 100
- Post-emerge Herbicidal Activity CASOB (phytotoxicity rating) ([23]; 63 g ai/ha): 95
- Post-emerge Herbicidal Activity CASOB (phytotoxicity rating) ([23]; 250 g ai/ha): 100
